Results: patent publication US10799479B2, “Self-emulsifying formulations of DIM-related indoles” (BioResponse, L.L.C., priority 2015, dated 2020)

What was measured:
[1] = Dispersion test in USP dissolution bath (DLS Nicomp, polarized light microscopy); type: physicochemical
Procedure: A dispersion test was performed on the miscible formulations in a USP dissolution bath. 830 μL of miscible mixture was introduced in 250 mL of purified water at 37° C. under agitation with a paddle at 100 rpm. Performance criteria were: ease of emulsification, homogeneity and fineness of the dispersion. The fineness of the dispersion was assayed by dynamic light scattering (DLS, Particle Sizing Systems Nicomp). Photomicrographs were obtained of crystals observed during light microscopic observation following 30 minutes of dispersion.
The dispersion of the formulation in 250 mL of water (equivalent to the FDA glass of water) was followed for observance of the precipitation of DIM after 30 minutes and was checked by polarized light microscopy. Study of Formulation “D” lead to the formation of a fine and turbid emulsion with a crystal formation showing particle size distribution of 283±66 nm (volume). […] The advantageous reduction in crystal size for Formulation N compared to Formulation D is attributed, at least in part, to a contribution from Peppermint Oil and low concentration of Polysorbate 80 (see FIG. 4, A, B, and C).

[2] = Single dose human oral bioavailability study; type: in vivo; settings: single oral dose 300 mg DIM, healthy individuals, mean
Procedure: In Part I of the Study, a treatment group was administered a 300 mg dose of DIM from BR-DIM or a 300 mg dose of DIM from crystalline DIM on the first study day, followed by crossover to the other DIM formulation on the second study day, at least 14 days following the first treatment. 3 subjects were given crystalline DIM, 4 subjects were given BR-DIM.
In Part II of the Study, five individuals, four of whom participated in Part I of the Study, were administered a 300 mg dose of DIM from DIM SMEDDS Formulation D. Testing of DIM SMEDDS formula D took place on one day with 5 subjects. The subjects were all healthy, adult volunteers, both male and female, not consuming DIM containing supplements and in a fasting state on study days. […]
The concentrations of DIM in human plasma samples were determined by a validated high-performance liquid chromatography with tandem mass spectrometry (LC-MS/MS) method. […] The analytes were monitored by a Waters Micromass triple quadrupole mass spectrometer (Milford, Mass., USA) using an electrospray probe in the positive ionization mode operating at a cone voltage of 23V for DIM and 13V for the internal standard zileuton. […] The transitions at 129.9>76.8 and 237.1>161.1 were monitored for DIM and zileuton, respectively. […] The lower limit of quantitation (LLOQ) was determined at 10 ng/mL for DIM in human plasma. […]

[3] = Shake-flask determination of maximum solubility of DIM; type: physicochemical; settings: HPLC
Procedure: The solubility was determined as described by Lindenberg et al., 2004, Eur J Pharm Biopharm. 58(2):265-78. […] The vials were incubated at 37±0.5° C. while shaking on a “Polymax 1040” orbital shaker (Heidolph, Schwabach). The samples of the solutions were taken after 4 or 24 hours by pressing the Uniprep® plunger down, diluted as appropriate, and the concentration of DIM was analyzed by HPLC, as described below. The measurements were done in triplicate. The maximum concentration of DIM in aqueous media used in this study was 0.6 μg/ml. […]

[4] = DIM solubility in excipients (incremental addition, microscopic observation); type: physicochemical; settings: olive oil or sunflower oil
Procedure: The first step in this development process was the testing of a variety of excipients chosen as potentially active in solubilizing DIM. […] The method involved weighing of approximately 2 grams of each of the liquid excipients into a small vial. Subsequently, a small amount of DIM was added and the mixture was shaken.
The method involved weighing of approximately 2 grams of each of the liquid excipients into a small vial. Subsequently, a small amount of DIM was added and the mixture was shaken. […] Continued testing of acceptable oil solvents for, e.g., nutritional supplement, self-emulsifying formulations using DIM as a representative DIM-related indole active ingredient included testing of the following oils: […]

[5] = source not stated; cited from earlier work

c1ccc2c(Cc3c[nH]c4ccccc34)c[nH]c2c1 [Crystalline DIM, 3,3′-diindolylmethane]
Particle Size Diameter after Dispersion in Water (nm) ([1]; Malvern Mastersizer, DIM as supplied by BioResponse): 3,010^1 nm
DIM Crystal Characteristics In Water Dispersion ([1]; polarized light microscopy after 30 minutes): Large
Cmax [2]: 18.1 ng/mL

c1ccc2c(Cc3c[nH]c4ccccc34)c[nH]c2c1 [DIM, 3,3′-diindolylmethane]
concentration of DIM in Octanol [3]: 2,300 μg/ml
ability to dissolve DIM [4]: very low

CC(C)=CCC/C(C)=C/CC/C(C)=C/CC/C(C)=C/CC1=C(C)C(=O)c2ccccc2C1=O [menaquinone-4]
Log P of 2nd API drug [5]: 10-12

Vitamin D
Log P of 2nd API drug [5]: 7.5
